Reference: US6875768B1, “Phthalamide derivatives, intermediates in the production thereof, and agricultural/horticultural insecticides and method for using the same” (Nihon Nohyako Co., Ltd., priority 1999, dated 2005)

Key:
[1] = test system: rice leafroller (Cnaphalocrosis medinalis); conditions: 500 ppm; rice lamina immersed about 30 seconds; third-instar larvae; four days after the inoculation; 25° C., humidity 70%
Method: Insecticidal effect on rice leafroller (Cnaphalocrosis medinalis)
After air-dryness, the lamina was placed in a plastic Petri dish with a diameter of 9 cm whose bottom had been covered with a wetted filter paper. The lamina was inoculated with third-instar larvae of rice leafroller, after which the dish was allowed to stand in a room thermostatted at 25° C. and having a humidity of 70%. Four days after the inoculation, the dead and alive were counted and the insecticidal effect was judged according to the criterion shown in Test Example 1. The test was carried out with triplicate groups of 10 insects.

[2] = test system: Common cutworm (Spodoptera litura); format: in vivo; conditions: 500 ppm; cabbage leaf immersed about 30 seconds; second-instar larvae; eight days after the inoculation; 25° C.
Text: Insecticidal Effect on Common cutworm (Spodoptera litura)

[3] = test system: diamond back moth (Plutella xylostella); format: in vivo; conditions: 1,000 ppm; Chinese cabbage seedling with eggs immersed about 30 seconds; counted six days after the immersion; 25° C.
Text: Insecticidal effect on diamond back moth (Plutella xylostella)
Adult diamond back moths were released and allowed to oviposit on a Chinese cabbage seedling. […] Six days after the immersion, the hatched insects were counted. […] [formula] Criterion • A - - - Mortality 100% • B - - - Mortality 99-90% • C - - - Mortality 89-80% • D - - - Mortality 79-50%

| SMILES | insecticidal effect (activity ranking by mortality) [1] | insecticidal effect (activity ranking by mortality) [2] | insecticidal effect (activity ranking by mortality) [3] |
| --- | --- | --- | --- |
| CCN(CC)C(=O)c1c(I)cccc1C(=O)Nc1ccc(C(F)(F)C(F)(F)C(F)(F)F)nc1Cl [Q27-129] | B or higher | B or higher | B or higher |
| CCN(CC)C(=O)c1c(I)cccc1C(=O)Nc1ccc(Br)cn1 [Q26-33] | B or higher | B or higher | B or higher |
| CC(C)NC(=O)c1c(I)cccc1C(=O)Nc1ccc(C(F)(C(F)(F)F)C(F)(F)F)nc1 [Q27-136] | B or higher | B or higher | B or higher |
| CC(C)NC(=O)c1c(I)cccc1C(=O)Nc1ccc(C(F)(F)C(F)(F)C(F)(F)F)nc1 [Q27-135] | B or higher | B or higher | B or higher |
| CC(C)NC(=O)c1c(I)cccc1C(=O)Nc1ccc(C(F)(F)C(F)(F)F)nc1 [Q27-134] | B or higher | B or higher | B or higher |
| CC(C)NC(=O)c1c(I)cccc1C(=O)Nc1ccc(Cl)nc1 [Q27-133] | B or higher | B or higher | B or higher |
| CCN(CC)C(=O)c1c(I)cccc1C(=O)Nc1ccc(Cl)cn1 [Q26-32] | B or higher | B or higher | B or higher |
| CC(C)NC(=O)c1c(Cl)cccc1C(=O)Nc1cnccc1SC(C)C [Q27-31] | B or higher | B or higher | B or higher |
| Cc1cc(Cl)ncc1NC(=O)c1c(Cl)cccc1C(=O)NC(C)C [Q27-128] | B or higher | B or higher | B or higher |
| Cc1cc(C(F)(C(F)(F)F)C(F)(F)F)ncc1NC(=O)c1cccc(I)c1C(=O)NC(C)C [Q27-137] | B or higher | B or higher | B or higher |
| CC(C)CSc1ccncc1NC(=O)c1cccc(Cl)c1C(=O)NC(C)C [Q27-32] | B or higher | B or higher | B or higher |
| Cc1nc(C(F)(C(F)(F)F)C(F)(F)F)ccc1NC(=O)c1cccc(I)c1C(=O)NC(C)C [Q27-138] | B or higher | B or higher | B or higher |
| CC(C)NC(=O)c1ccccc1C(=O)Nc1ncc(C(F)(F)F)cc1Cl [Q26-1] | B or higher | B or higher | B or higher |
| CCN(CC)C(=O)c1c(I)cccc1C(=O)Nc1ccc(Cl)nc1 [Q27-130] | B or higher | B or higher | B or higher |
| CC(C)(C)NC(=O)c1c(I)cccc1C(=O)Nc1ccc(C(F)(C(F)(F)F)C(F)(F)F)nc1 [Q27-139] | B or higher | B or higher | B or higher |
| CC(C)NC(=O)c1c(C(=O)Nc2cccnc2)cccc1[N+](=O)[O-] [Q27-164] | B or higher | B or higher | B or higher |
| CC(C)NC(=O)c1cccc(Cl)c1C(=O)Nc1ccc(SC(C)C)nc1 [Q27-126] | B or higher | B or higher | B or higher |
| Cc1nc(OC(F)(F)C(F)OC(F)(F)C(F)(F)C(F)(F)F)ccc1NC(=O)c1cccc(I)c1C(=O)NC(C)C (stereo not shown) [Q27-397] | – | B or higher | B or higher |
| COc1nc(OC(C(F)(F)F)C(F)(F)F)ccc1NC(=O)c1cccc(I)c1C(=O)NC(C)(C)CSC [Q27-268] | – | B or higher | B or higher |
| CCNC(=O)c1c(I)cccc1C(=O)Nc1cnc(C(F)(C(F)(F)F)C(F)(F)F)cn1 [Q34-46] | – | B or higher | B or higher |

| SMILES | insecticidal effect (activity ranking by mortality) [1] | insecticidal effect (activity ranking by mortality) [2] | insecticidal effect (activity ranking by mortality) [3] |
| --- | --- | --- | --- |
| CC(C)NC(=O)c1c(I)cccc1C(=O)Nc1ccc(C(F)(C(F)(F)F)C(F)(F)F)nc1[S+](C)[O-] (stereo not shown) [Q27-247] | – | B or higher | B or higher |
| CSCC(C)(C)NC(=O)c1c(I)cccc1C(=O)Nc1cnc(C(F)(C(F)(F)F)C(F)(F)F)cc1C [Q27-150] | – | B or higher | B or higher |
| CC(C)NC(=O)c1c(I)cccc1C(=O)Nc1ccc(OC(F)(F)C(F)F)nc1Cl [Q27-387] | – | B or higher | B or higher |
| CSCC(C)(C)NC(=O)c1c(I)cccc1C(=O)Nc1ccc(OC(F)(F)C(F)F)nc1Cl [Q27-388] | – | B or higher | B or higher |
| CSCC(C)(C)NC(=O)c1c(C(=O)Nc2ccc(OC(C(F)(F)F)C(F)(F)F)nc2C)cccc1C(F)(F)F [Q27-359] | – | B or higher | B or higher |
| Cc1nc(OC(C(F)(F)F)C(F)(F)F)ccc1NC(=O)c1ccccc1C(=O)NC(C)(C)C[S+](C)[O-] (stereo not shown) [Q27-289] | – | B or higher | B or higher |
| CCN(CC)C(=O)c1c(I)cccc1C(=O)Nc1ccc(C(F)(C(F)(F)F)C(F)(F)F)nc1Cl [Q27-231] | – | B or higher | B or higher |
| CSc1nc(C(F)(C(F)(F)F)C(F)(F)F)ccc1NC(=O)c1cccc(I)c1C(=O)NC(C)C [Q27-246] | – | B or higher | B or higher |
| CC(C)(CS(C)(=O)=O)NC(=O)c1c(I)cccc1C(=O)Nc1cccnc1C(F)(C(F)(F)F)C(F)(F)F [Q27-239] | – | B or higher | B or higher |
| Cc1nc(OC(C(F)(F)F)C(F)(F)F)ccc1NC(=O)c1cccc(C(F)(F)F)c1C(=O)NC(C)(C)C [Q27-355] | – | B or higher | B or higher |
| CSCC(C)(C)NC(=O)c1c(I)cccc1C(=O)Nc1ccc(C(F)(C(F)(F)F)C(F)(F)F)nc1Cl [Q27-234] | – | B or higher | B or higher |
| CSCC(C)NC(=O)c1c(C(=O)Nc2ccc(OC(C(F)(F)F)C(F)(F)F)nc2C)ccc(Cl)c1Cl (stereo not shown) [Q27-334] | – | B or higher | B or higher |
| CC(C)NC(=O)c1c(I)cccc1C(=O)Nc1ccc(C(F)(C(F)(F)F)C(F)(F)F)nc1Cl [Q27-230] | – | B or higher | B or higher |
| CSCC(C)NC(=O)c1c(I)cccc1C(=O)Nc1ccc(C(F)(C(F)(F)F)C(F)(F)F)nc1Cl (stereo not shown) [Q27-232] | – | B or higher | B or higher |
| Cc1cc(C(F)(C(F)(F)F)C(F)(F)F)cnc1NC(=O)c1cccc(I)c1C(=O)NC(C)C [Q26-11] | – | B or higher | B or higher |
| COc1nc(C(F)(C(F)(F)F)C(F)(F)F)ccc1NC(=O)c1cccc(I)c1C(=O)NC(C)CSC (stereo not shown) [Q27-241] | – | B or higher | B or higher |
| Cc1nc(OC(F)(F)C(F)F)ccc1NC(=O)c1cccc(I)c1C(=O)NC(C)C [Q27-378] | – | B or higher | B or higher |
| CSCC(C)NC(=O)c1c(I)cccc1C(=O)Nc1ccc(OC(F)(F)C(F)OC(F)(F)C(F)(F)C(F)(F)F)nc1Cl (stereo not shown) [Q27-407] | – | B or higher | B or higher |
| Cc1nc(OC(C(F)(F)F)C(F)(F)F)ccc1NC(=O)c1cccc([N+](=O)[O-])c1C(=O)NC(C)(C)CS(C)(=O)=O [Q27-353] | – | B or higher | B or higher |
| C[S+]([O-])CC(C)(C)NC(=O)c1c(I)cccc1C(=O)Nc1ccc(C(F)(C(F)(F)F)C(F)(F)F)nc1Cl (stereo not shown) [Q27-235] | – | B or higher | B or higher |
